Consider one compound from paper PMC4310350 (Drug Design, Development and Therapy, 2015).

The target of data set [1] is T1, OCT1 (Homo sapiens, UniProt O15245).
T1 sequence (O15245 1-554): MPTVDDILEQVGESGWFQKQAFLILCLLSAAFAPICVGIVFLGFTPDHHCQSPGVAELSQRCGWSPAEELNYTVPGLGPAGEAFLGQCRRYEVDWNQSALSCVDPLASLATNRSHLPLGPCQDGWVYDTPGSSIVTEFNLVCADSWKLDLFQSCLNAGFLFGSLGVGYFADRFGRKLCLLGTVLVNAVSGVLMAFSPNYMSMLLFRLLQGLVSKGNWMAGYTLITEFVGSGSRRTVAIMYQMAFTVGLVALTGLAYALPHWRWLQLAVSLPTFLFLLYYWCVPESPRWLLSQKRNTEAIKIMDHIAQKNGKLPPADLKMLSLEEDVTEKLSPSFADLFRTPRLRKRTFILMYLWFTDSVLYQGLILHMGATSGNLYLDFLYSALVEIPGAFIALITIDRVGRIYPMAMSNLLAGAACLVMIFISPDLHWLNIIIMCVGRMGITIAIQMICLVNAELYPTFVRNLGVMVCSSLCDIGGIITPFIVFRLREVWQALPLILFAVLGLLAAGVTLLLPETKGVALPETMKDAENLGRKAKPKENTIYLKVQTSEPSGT
The data set can be described thus: Inhibitory effect of catalposide on OCT1 transport activity. In kind it is in vitro ADME. The conditions noted are these: probe 0.1 μM [3H]MPP+, catalposide 0–100 μM.

For data set [2] the following is noted: 3-hour incubation in rat plasma; cited from earlier work.
For data set [3] the following is noted: rats, cited from earlier work.
For a further data set, the target named is T2, OAT1 (Homo sapiens, UniProt Q4U2R8).
T2 sequence (Q4U2R8 1-563): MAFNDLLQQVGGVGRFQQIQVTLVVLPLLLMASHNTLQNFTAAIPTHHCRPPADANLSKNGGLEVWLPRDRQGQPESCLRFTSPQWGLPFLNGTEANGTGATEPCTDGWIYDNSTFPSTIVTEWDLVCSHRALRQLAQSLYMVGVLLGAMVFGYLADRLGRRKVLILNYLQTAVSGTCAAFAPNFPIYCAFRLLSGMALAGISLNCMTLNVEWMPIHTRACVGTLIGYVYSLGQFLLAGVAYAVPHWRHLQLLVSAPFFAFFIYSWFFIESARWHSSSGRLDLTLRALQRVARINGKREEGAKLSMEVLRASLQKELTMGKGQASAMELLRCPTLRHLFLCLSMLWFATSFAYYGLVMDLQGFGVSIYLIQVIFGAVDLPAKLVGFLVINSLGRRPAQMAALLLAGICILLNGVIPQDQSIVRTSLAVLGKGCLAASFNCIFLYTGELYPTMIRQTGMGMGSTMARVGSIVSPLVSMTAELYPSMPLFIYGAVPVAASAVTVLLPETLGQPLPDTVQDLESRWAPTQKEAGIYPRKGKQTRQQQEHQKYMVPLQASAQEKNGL
The data set is described as follows: Uptake in HEK293 cells overexpressing OAT1. In kind it is in vitro ADME. The following applies: OAT1, influx.

Data set [4] concerns suppression of cytokines, antioxidative effect, and PPAR-α activation. The conditions noted are these: in vitro cell system; cited from earlier work.
Data set [5] in a line: Pharmacokinetics in rats after intravenous administration. In kind it is in vivo. The following applies: from the cited clearance values.
For a further data set, the target named is T3, OCT2 (Homo sapiens, UniProt O15244).
T3 sequence (O15244 1-555): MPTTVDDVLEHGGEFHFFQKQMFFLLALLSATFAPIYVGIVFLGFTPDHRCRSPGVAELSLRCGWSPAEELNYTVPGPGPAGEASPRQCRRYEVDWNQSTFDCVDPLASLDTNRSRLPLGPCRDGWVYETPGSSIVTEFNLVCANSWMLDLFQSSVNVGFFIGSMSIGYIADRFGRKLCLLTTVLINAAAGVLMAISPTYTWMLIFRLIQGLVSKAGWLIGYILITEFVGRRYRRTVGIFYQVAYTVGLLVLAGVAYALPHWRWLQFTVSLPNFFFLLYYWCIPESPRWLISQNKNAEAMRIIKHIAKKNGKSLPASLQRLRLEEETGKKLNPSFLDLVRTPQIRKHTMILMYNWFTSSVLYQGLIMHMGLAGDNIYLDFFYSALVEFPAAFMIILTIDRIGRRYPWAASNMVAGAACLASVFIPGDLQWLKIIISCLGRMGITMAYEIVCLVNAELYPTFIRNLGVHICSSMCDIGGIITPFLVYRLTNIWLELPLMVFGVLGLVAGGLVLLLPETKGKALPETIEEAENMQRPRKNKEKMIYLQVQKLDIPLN
The data set can be described thus: Inhibitory effect of catalposide on OCT2 transport activity. In kind it is in vitro ADME. The following applies: probe 0.1 μM [3H]MPP+, catalposide 0–100 μM.

For data set [6], the system named is colitis induced by trinitrobenzene sulfonic acid. The following applies: mice, cited from earlier work.
Another data set addresses T4, OAT3 (Homo sapiens, UniProt Q8TCC7).
T4 sequence (Q8TCC7 1-542): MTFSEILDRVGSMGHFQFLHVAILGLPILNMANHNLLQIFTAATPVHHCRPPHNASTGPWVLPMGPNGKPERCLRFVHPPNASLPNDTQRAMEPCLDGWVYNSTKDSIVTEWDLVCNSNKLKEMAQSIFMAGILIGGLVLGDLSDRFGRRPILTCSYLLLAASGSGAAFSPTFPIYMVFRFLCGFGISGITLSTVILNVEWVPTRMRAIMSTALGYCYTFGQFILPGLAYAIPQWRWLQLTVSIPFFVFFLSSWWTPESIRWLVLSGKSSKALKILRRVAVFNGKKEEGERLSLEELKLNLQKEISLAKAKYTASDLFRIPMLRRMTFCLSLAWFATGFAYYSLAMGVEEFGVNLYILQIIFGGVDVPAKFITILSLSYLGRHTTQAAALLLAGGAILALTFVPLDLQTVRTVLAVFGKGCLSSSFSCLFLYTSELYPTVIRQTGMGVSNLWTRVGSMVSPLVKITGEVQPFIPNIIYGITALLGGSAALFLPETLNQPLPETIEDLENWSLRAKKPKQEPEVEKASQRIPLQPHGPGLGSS
The data set is described as follows: Uptake in HEK293 cells overexpressing OAT3. In kind it is in vitro ADME.

For data set [7], the target named is T1, OCT1. The data set is described as follows: Uptake in HEK293 cells overexpressing OCT1. In kind it is in vitro ADME. The following applies: OCT1, influx.
For data set [8] the following is noted: 3-hour incubation in human plasma; cited from earlier work.

SMILES strings stand for the structures. Where two headings read alike, the source gives them in different places.

As to `O=C(O[C@H]1[C@@H]2C=CO[C@@H](O[C@@H]3O[C@H](CO)[C@@H](O)[C@H](O)[C@H]3O)[C@@H]2[C@@]2(CO)O[C@@H]12)c1ccc(O)cc1` [catalposide], the Inhibitor entry at OCT1 [1] is “did not significantly inhibit”. Further, the Stability entry in data set [2] is listed as “remained stable”. In addition, in data set [3] (intravenous 10 mg/kg, % of dose), the “Recovery in the urine (unchanged form)” value is reported as 9.9%. Further, in data set [3] (intravenous), the Distribution volume is 2657.2 ± 1396.9 mL/kg, the Nonrenal clearance is 88.2 mL/min/kg, the Renal clearance is 8.47 mL/min/kg and the Systemic clearance was 96.7 ± 44.2 mL/min/kg. Besides, in data set [3] (intravenous), the Terminal half-life is 19.3 ± 9.5 min. Also, the Substrate result at OAT1 was “not involved”. Moreover, the Effective concentration in data set [4] was 0.2 to 4 µM. Moreover, the “Share cleared by nonrenal clearance” value in data set [5] is given as “approximately 90%”. The Inhibitor result at OCT2 is reported as “did not significantly inhibit”. For the same compound, the Histologic toxicity result in [6] (1–2.5 mg/kg) is reported as “without histologic toxicity”. The Severity of colitis entry in data set [6] (dose 0.5 mg/kg) is on record as “reduced the severity of colitis”. Besides, the “Clint for OAT3 relative to OATP1B1” value at OAT3 (OAT3 vs OATP1B1) was 31.8 fold. Besides, at OAT3 (OAT3 vs OATP1B3), the “Clint for OAT3 relative to OATP1B3” value was found to be 32.7 fold. Further, the Substrate result on OCT1 [7] was “not involved”. Further, in [8], the Stability entry is listed as “remained stable”.
